Assay results: US20110070232A1, “Combination Therapy with an Antitumor Alkaloid” (Pharma Mar, S.A., priority 2008, published 2011)
Read-outs that look alike come from different tables or passages of the source.

Test system: MRI-H-254 tumors
Type: in vivo, mice
Description: Female athymic nude mice (Harlan Sprague Dawley, Madison, Wis.) were utilized for all experiments. Animals were housed in ventilated rack caging with food and water ad libitum. The mice were acclimated for at least 5 days prior to tumor implantation with tumor fragments.
Treatments were initiated on DPI 16.
Tumor size measurements were recorded twice weekly from the treatment initiation until the termination of the study.
Mean, standard deviation and standard error of the mean were determined for tumor volume for all animal groups at all assessments. Student's t test was performed on tumor volumes at each measurement day, including at the end of the study, to determine whether there were any statistically significant differences between combination treatment groups and single monotherapy treatment groups.

[1] = day 20, PM00104 0.90, cisplatin 3, irinotecan 10, paclitaxel 12.5 mg/kg/day
[2] = day 20, PM00104 0.90, cisplatin 5, irinotecan 18, paclitaxel 25 mg/kg/day
[3] = day 23, PM00104 0.90, cisplatin 3, irinotecan 10, paclitaxel 12.5 mg/kg/day
[4] = day 26, PM00104 0.90, cisplatin 3, irinotecan 10, paclitaxel 12.5 mg/kg/day
[5] = day 29, PM00104 0.90, cisplatin 3, irinotecan 10, paclitaxel 12.5 mg/kg/day
[6] = day 40, PM00104 0.90, cisplatin 3, irinotecan 10, paclitaxel 12.5 mg/kg/day
[7] = day 40, PM00104 0.90, cisplatin 5, irinotecan 18, paclitaxel 25 mg/kg/day
[8] = day 48, PM00104 0.90, cisplatin 3, irinotecan 10, paclitaxel 12.5 mg/kg/day
[9] = day 48, PM00104 0.90, cisplatin 5, irinotecan 18, paclitaxel 25 mg/kg/day

SMILES: CCc1c2c(nc3ccc(OC(=O)N4CCC(N5CCCCC5)CC4)cc13)-c1cc3c(c(=O)n1C2)COC(=O)[C@]3(O)CC [irinotecan]
- % Inhibition (day 16, PM00104 0.90, cisplatin 3, irinotecan 10, paclitaxel 12.5 mg/kg/day): 1.6%
- % Inhibition (day 16, PM00104 0.90, cisplatin 5, irinotecan 18, paclitaxel 25 mg/kg/day): 1.9%
- % Inhibition [1]: 7.5%
- % T/C [1]: 92.5%
- % Inhibition [2]: 7.9%
- % T/C [2]: 92.1%
- % Inhibition [3]: 7.0%
- % T/C [3]: 93.0%
- % Inhibition (day 23, PM00104 0.90, cisplatin 5, irinotecan 18, paclitaxel 25 mg/kg/day): 16.0%
- % Inhibition [4]: 9.8%
- % T/C [4]: 90.2%
- % Inhibition (day 26, PM00104 0.90, cisplatin 5, irinotecan 18, paclitaxel 25 mg/kg/day): 25.0%
- % Inhibition [5]: 11.4%
- % T/C [5]: 88.6%
- % Inhibition [6]: 50.8%
- % T/C [6]: 49.2%
- % Inhibition [7]: 59.9%
- % T/C [7]: 40.1%
- % Inhibition [8]: 58.6%
- % T/C [8]: 41.4%
- % Inhibition [9]: 65.1%
- % T/C [9]: 34.9%
